This is an account of results in paper PMC10174618, “Monoterpenoid aryl hydrocarbon receptor allosteric antagonists protect against ultraviolet skin damage in female mice” (Nature Communications, 2023).

Structures are written as SMILES.

Common to all, as to assay: biochemical
Design in all cases: KINOMEscan scanMAX active site-directed competition binding assay, percent of control, 468 kinases
Holding throughout (conditions): competition binding, percent of control

The target of one assay is HIPK2 (Homo sapiens, UniProt Q9H2X6). Put shortly:
(§1)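 KINOMEscan active site-directed competition binding assay against 468 human kinases with 100 μM S-carvone. Binding expressed as % of control, with 35% of control as the inhibition threshold.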

For a further assay, the target named is T1, FAK (Homo sapiens, UniProt Q05397).
T1 construct: gene PTK2
In a few lines:
as §1

A further assay concerns the target EPHA3 (Homo sapiens, UniProt P29320). In a few lines:
as §1

The next assay has as its target T2, MEK6 (Homo sapiens, UniProt P52564).
T2 construct: gene MAP2K6
Put shortly: as §1

Another assay has as its target GSK3A (Homo sapiens, UniProt P49840). In a few lines: as §1
The target in the next assay is T3, ERK4 (Homo sapiens, UniProt P31152).
T3 construct: gene MAPK4
Put shortly:
as §1

Another assay addresses FLT3(ITD,D835V) (Homo sapiens, UniProt P36888, D835V/ITD). Put shortly: as §1
The target in a further assay is T4, YSK1 (Homo sapiens, UniProt O00506).
T4 construct: gene STK25
Put shortly: as §1

The target in a further assay is T5, CTK (Homo sapiens, UniProt P42679).
T5 construct: gene MATK
Put shortly:
as §1

The next assay addresses TNK1 (Homo sapiens, UniProt Q13470). Put shortly:
as §1

A further assay concerns the target DMPK (Homo sapiens, UniProt Q09013). Put shortly:
as §1

In another assay the target is BMX (Homo sapiens, UniProt P51813). In a few lines: as §1
The target of a further assay is PDGFRA (Homo sapiens, UniProt P16234). Put shortly: as §1
A further assay concerns the target MYO3A (Homo sapiens, UniProt Q8NEV4). In a few lines: as §1
A further assay has as its target T6, DCAMKL3 (Homo sapiens, UniProt Q9C098).
T6 construct: gene DCLK3
In a few lines:
as §1

The target in another assay is T7, MRCKA (Homo sapiens, UniProt Q5VT25).
T7 construct: gene CDC42BPA
Put shortly:
as §1

For a further assay, the target named is PAK2 (Homo sapiens, UniProt Q13177). In a few lines:
as §1

For a further assay, the target named is ALK(L1196M) (Homo sapiens, UniProt Q9UM73, L1196M). Put shortly: as §1
The next assay deals with PIK3CA(M1043I) (Homo sapiens, UniProt P42336, M1043I). In a few lines:
as §1

For the next assay, the target named is CAMK2G (Homo sapiens, UniProt Q13555). Put shortly: as §1
The target of another assay is T8, ICK (Homo sapiens, UniProt Q9UPZ9).
T8 construct: gene CILK1
In a few lines:
as §1

For another assay, the target named is MAK (Homo sapiens, UniProt P20794). Put shortly:
as §1

Sequence of BMX (P51813 whole entry): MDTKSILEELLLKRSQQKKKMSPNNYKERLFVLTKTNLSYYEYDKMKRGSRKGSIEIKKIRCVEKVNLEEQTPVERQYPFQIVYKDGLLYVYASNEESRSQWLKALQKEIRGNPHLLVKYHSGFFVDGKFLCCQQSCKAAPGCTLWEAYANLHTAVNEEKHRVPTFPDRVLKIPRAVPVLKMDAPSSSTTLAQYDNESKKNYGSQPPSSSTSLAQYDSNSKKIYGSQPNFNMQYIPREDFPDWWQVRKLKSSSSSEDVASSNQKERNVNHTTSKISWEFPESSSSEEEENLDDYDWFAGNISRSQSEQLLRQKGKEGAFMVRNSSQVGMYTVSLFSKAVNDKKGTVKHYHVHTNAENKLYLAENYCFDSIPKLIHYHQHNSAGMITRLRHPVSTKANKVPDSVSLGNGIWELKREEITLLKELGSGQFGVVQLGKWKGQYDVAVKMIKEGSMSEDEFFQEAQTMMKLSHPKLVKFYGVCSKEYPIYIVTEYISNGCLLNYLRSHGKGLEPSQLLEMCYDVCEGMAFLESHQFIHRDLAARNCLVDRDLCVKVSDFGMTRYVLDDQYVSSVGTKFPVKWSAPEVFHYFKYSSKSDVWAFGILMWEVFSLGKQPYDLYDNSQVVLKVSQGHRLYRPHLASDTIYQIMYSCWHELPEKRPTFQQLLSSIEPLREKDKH
Sequence of HIPK2 (Q9H2X6 whole entry): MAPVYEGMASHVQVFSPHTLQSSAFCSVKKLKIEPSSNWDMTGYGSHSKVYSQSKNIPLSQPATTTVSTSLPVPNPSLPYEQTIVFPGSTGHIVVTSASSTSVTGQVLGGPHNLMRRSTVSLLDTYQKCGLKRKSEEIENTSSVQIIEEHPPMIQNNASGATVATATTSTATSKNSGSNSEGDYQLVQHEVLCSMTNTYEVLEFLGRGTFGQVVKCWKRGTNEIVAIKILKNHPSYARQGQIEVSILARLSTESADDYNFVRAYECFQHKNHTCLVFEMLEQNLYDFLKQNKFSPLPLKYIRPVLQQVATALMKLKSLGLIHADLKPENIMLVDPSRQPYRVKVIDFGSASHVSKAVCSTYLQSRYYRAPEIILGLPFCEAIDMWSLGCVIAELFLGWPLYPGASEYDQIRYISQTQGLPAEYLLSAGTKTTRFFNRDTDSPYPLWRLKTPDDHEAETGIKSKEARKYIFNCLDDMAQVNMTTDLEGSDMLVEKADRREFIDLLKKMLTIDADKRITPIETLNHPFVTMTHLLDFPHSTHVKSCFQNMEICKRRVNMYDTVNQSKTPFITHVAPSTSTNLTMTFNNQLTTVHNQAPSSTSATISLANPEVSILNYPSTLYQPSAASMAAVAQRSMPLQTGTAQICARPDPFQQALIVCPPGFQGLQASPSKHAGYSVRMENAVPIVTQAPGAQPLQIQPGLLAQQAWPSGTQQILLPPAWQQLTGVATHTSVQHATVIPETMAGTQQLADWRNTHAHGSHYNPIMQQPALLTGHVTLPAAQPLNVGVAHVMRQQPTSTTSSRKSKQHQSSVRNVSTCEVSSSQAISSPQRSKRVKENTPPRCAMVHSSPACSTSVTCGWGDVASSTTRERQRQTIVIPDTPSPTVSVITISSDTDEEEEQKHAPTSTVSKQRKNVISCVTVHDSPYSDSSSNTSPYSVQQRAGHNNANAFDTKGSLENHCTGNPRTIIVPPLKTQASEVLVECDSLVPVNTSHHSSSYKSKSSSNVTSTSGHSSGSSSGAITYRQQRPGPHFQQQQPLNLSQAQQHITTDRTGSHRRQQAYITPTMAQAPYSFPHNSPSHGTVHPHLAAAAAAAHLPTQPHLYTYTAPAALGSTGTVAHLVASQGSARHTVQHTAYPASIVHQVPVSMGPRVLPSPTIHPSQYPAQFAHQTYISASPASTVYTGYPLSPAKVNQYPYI
T8 sequence (Q9UPZ9 whole entry): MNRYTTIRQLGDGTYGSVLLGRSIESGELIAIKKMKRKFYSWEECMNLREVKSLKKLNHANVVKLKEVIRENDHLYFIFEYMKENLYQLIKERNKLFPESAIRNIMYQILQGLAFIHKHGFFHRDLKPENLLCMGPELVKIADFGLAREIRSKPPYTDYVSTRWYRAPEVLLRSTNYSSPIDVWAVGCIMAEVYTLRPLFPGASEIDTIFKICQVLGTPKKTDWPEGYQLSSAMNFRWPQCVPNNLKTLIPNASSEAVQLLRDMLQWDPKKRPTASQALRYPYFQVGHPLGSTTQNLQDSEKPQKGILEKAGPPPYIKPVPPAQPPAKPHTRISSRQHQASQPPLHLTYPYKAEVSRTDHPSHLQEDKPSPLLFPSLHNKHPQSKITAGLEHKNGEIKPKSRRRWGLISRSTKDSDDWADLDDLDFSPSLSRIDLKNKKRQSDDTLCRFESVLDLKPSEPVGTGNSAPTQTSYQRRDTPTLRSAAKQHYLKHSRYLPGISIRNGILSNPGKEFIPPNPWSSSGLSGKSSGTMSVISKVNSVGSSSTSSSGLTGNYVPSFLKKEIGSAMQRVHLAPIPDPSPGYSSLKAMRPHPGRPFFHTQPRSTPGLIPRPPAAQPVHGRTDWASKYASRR
Sequence of CAMK2G (Q13555 whole entry): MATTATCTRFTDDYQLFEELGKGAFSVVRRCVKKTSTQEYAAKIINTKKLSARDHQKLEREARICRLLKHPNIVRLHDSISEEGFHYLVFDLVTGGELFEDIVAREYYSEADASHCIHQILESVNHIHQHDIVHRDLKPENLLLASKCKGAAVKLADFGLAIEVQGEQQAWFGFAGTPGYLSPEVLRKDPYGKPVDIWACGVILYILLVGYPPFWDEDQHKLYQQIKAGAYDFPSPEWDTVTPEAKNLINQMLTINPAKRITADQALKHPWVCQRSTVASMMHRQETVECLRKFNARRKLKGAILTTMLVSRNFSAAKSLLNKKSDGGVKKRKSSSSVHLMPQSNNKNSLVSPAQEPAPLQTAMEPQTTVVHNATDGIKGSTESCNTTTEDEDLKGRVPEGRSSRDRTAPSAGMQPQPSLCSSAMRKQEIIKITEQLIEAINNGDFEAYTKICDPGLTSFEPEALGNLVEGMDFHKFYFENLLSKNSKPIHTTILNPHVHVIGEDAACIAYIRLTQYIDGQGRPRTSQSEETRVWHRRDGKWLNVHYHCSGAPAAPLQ
Sequence of PIK3CA(M1043I) (P42336 whole entry M1043I): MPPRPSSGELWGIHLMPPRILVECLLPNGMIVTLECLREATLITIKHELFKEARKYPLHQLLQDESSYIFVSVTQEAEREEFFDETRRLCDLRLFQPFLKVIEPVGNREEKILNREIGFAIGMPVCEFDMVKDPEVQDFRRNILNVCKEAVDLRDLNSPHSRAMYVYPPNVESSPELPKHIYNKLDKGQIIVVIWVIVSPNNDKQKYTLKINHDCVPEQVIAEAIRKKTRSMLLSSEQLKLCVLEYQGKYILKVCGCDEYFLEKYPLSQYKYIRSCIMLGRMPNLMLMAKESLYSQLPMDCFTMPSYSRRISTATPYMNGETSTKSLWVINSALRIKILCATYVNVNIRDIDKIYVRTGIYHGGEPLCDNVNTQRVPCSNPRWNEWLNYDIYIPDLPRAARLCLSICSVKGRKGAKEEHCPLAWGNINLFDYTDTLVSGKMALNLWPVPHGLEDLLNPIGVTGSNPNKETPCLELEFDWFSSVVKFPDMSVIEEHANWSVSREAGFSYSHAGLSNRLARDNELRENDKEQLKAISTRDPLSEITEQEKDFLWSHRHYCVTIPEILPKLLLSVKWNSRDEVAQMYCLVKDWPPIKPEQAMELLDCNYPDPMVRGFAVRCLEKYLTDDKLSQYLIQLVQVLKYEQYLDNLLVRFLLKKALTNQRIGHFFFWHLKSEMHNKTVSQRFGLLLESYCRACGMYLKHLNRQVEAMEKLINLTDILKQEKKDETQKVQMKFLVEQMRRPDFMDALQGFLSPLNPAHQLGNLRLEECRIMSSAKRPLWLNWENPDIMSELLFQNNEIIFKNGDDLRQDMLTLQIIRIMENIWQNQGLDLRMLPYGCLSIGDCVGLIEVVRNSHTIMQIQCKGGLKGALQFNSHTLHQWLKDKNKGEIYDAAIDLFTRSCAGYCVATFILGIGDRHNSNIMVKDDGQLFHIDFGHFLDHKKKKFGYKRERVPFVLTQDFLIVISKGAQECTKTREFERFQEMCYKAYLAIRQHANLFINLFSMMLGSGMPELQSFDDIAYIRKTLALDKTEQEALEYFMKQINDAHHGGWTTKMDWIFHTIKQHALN
Sequence of GSK3A (P49840 whole entry): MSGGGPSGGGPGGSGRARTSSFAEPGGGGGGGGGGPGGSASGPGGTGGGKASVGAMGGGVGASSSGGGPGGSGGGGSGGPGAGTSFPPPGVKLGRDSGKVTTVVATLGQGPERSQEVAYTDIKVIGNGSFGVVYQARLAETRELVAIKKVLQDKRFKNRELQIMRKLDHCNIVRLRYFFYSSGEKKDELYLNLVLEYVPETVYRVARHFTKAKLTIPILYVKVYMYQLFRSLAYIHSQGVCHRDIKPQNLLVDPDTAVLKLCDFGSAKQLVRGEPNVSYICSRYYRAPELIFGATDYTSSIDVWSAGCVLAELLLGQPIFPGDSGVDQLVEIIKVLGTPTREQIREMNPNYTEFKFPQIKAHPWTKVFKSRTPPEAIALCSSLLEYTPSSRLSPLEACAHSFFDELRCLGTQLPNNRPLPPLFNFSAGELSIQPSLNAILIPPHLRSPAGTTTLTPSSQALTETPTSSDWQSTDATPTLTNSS
T4 sequence (O00506 whole entry): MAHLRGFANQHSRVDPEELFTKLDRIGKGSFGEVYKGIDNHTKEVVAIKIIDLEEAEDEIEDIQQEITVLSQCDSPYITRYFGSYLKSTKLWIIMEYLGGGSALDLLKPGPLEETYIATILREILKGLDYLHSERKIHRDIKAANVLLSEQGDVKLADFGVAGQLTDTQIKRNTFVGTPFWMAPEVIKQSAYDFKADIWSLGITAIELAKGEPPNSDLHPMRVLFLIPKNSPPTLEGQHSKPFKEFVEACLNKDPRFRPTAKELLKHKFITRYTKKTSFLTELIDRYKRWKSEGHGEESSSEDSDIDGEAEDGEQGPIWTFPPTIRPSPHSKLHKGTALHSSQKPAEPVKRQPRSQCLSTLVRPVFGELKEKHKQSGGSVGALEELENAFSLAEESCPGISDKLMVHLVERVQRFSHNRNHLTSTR

Consider `C=C(C)[C@H]1CC=C(C)C(=O)C1` [S-carvone], for which the remaining binding at 100 µM on HIPK2 was determined as 76%; on FAK, 81%; at EPHA3 it was 100%; at MEK6, 82%; on GSK3A, 100%; on ERK4, 89%. The remaining binding at 100 µM at FLT3(ITD,D835V) worked out at 85%; on YSK1, 73%; at CTK it was 75%; on TNK1, 100%; on DMPK, 94%; on BMX, 67%. Besides, the remaining binding at 100 µM worked out at 80% on PDGFRA; 95% on MYO3A; 75% on DCAMKL3; 80% on MRCKA; 98% on PAK2; 71% at ALK(L1196M). Further, the remaining binding at 100 µM on PIK3CA(M1043I) turned out to be 83%; on CAMK2G, 84%; at ICK, 97%; on MAK, 73%.
